These are literature values, as cited in patent US20210000980A1, “METHOD AND COMPOSITION FOR THE DETECTION OF ARTHROPODS” (ARKE' S.r.l., priority 2018, published 2021).

The subject of this data set is lice. Particulars: 10% formic acid solution in water.

Each structure is given as a SMILES string.

`O=CO` [formic acid]: the lice removed is on record as not above 94%.
